Laboratory results taken from US6737383B1, “Herbicidal oxadiazolidines” (priority 1999, dated 2004).

Tests used:
cocklebur = assay: Test B pre/postemergence cocklebur; format: in vivo, Xanthium strumarium
In short: (§1)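 Herbicidal effect was estimated by eye on a ten-point control scale after plants spent twelve to sixteen days in a greenhouse following soil or foliar treatment. Foliar sprays targeted plants at one to four leaves; all doses were formulated in a non-phytotoxic solvent with surfactant.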

pigweed = assay: Test B pre/postemergence pigweed; format: in vivo, Amaranthus retroflexus
In short: as §1

rice = assay: Test B flood test rice; format: in vivo, Oryza sativa
In short: (§2)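 Plants were grown to the 2-leaf stage before treatment with test chemical, then held in a greenhouse for twelve to sixteen days. Injury was visually rated against untreated controls on a 0–10 scale, where 0 is no effect and 10 is complete control.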

giant foxtail = assay: Test B pre/postemergence giant foxtail; format: in vivo, Setaria faberii
In short: as §1

surinam grass = assay: Test B pre/postemergence surinam grass; format: in vivo, Brachiaria decumbens
In short: as §1

velvetleaf = assay: Test B pre/postemergence velvetleaf; format: in vivo, Abutilon theophrasti
In short: as §1

soybean = assay: Test B pre/postemergence soybean; format: in vivo, Glycine max
In short: as §1

bedstraw = assay: Test B pre/postemergence bedstraw; format: in vivo, Galium aparine
In short: as §1

smallflower flatsedge = assay: Test B flood test smallflower flatsedge; format: in vivo, Cyperus difformis
In short: as §2

purple nutsedge = assay: Test B pre/postemergence purple nutsedge; format: in vivo, Cyperus rotundus
In short: as §1

rape = assay: Test B pre/postemergence rape; format: in vivo, Brassica napus
In short: as §1

wheat = assay: Test B pre/postemergence wheat; format: in vivo, Triticum aestivum
In short: as §1

wild oat = assay: Test B pre/postemergence wild oat; format: in vivo, Avena fatua
In short: as §1

corn = assay: Test B pre/postemergence corn; format: in vivo, Zea mays
In short: as §1

duck salad = assay: Test B flood test duck salad; format: in vivo, Heteranthera limosa
In short: as §2

sugar beet = assay: Test B pre/postemergence sugar beet; format: in vivo, Beta vulgaris
In short: as §1

[1] = Preemergence, Rate 62 g/ha, scale of 0 to 10 where 0 is no effect and 10 is complete control
[2] = Preemergence, Rate 125 g/ha, 0 is no effect, 10 is complete control
[3] = Preemergence, Rate 250 g/ha, scale 0 to 10, 0 is no effect, 10 is complete control
[4] = Preemergence, Rate 500 g/ha, scale of 0 to 10 where 0 is no effect and 10 is complete control
[5] = Rate 62 g/ha, Postemergence, scale of 0 to 10 where 0 is no effect and 10 is complete control
[6] = Rate 125 g/ha, Postemergence, scale 0 to 10
[7] = Rate 500 g/ha, Postemergence, scale 0 to 10
[8] = Rate 62 g/ha, headed Pre-emergence (flood test species), scale 0 to 10 (0 no effect, 10 complete control)
[9] = Rate 125 g/ha, Pre-emergence, flood test species, scale 0 to 10 where 0 is no effect and 10 is complete control
[10] = Rate 250 g/ha, Pre-emergence, flood-test species, scale 0 to 10, 0 is no effect, 10 is complete control
[11] = Rate 500 g/ha, headed Pre-emergence (flood test species), scale 0 to 10 (0 no effect, 10 complete control)

## C=CCn1c(=O)on(C(=O)N(c2ccc(F)cc2)C2CCC2)c1=O [Compound 194]
cocklebur; [1]
  Cocklebur plant response rating: 0
cocklebur; [2]
  Cocklebur plant response rating (0 to 10 scale): 0
cocklebur; [3]
  Cocklebur plant response rating: 0
cocklebur; [4]
  Plant response rating, Cocklebur: 0
cocklebur; [5]
  Cocklebur plant response rating: 0
cocklebur; [6]
  Cocklebur plant response rating: 1
cocklebur; Rate 250 g/ha, Postemergence
  Plant response rating (0 to 10; 0 is no effect, 10 is complete control), Cocklebur: 2
cocklebur; [7]
  Cocklebur plant response rating: 2
pigweed; [1]
  Redroot pigweed plant response rating: 5
pigweed; [2]
  Redroot pigweed plant response rating (0 to 10 scale): 7
pigweed; [3]
  Redroot pigweed plant response rating: 8
pigweed; [4]
  Plant response rating, Redroot pigweed: 10
pigweed; [5]
  Redroot pigweed plant response rating: 0
pigweed; [6]
  Redroot pigweed plant response rating: 0
pigweed; Rate 250 g/ha, Postemergence
  Plant response rating (0 to 10; 0 is no effect, 10 is complete control), Redroot pigweed: 0
pigweed; [7]
  Redroot pigweed plant response rating: 0
rice; [8]
  Rice plant response rating: 0
rice; [9]
  Rice plant response rating: 0
rice; [10]
  Rice plant response rating: 0
rice; [11]
  Plant response rating, Rice: 0
Giant foxtail; [1]
  Giant foxtail plant response rating: 3
Giant foxtail; [2]
  Giant foxtail plant response rating (0 to 10 scale): 8
Giant foxtail; [3]
  Giant foxtail plant response rating: 8
Giant foxtail; [4]
  Plant response rating, Giant foxtail: 9
Giant foxtail; [5]
  Giant foxtail plant response rating: 0
Giant foxtail; [6]
  Giant foxtail plant response rating: 1
Giant foxtail; Rate 250 g/ha, Postemergence
  Plant response rating (0 to 10; 0 is no effect, 10 is complete control), Giant foxtail: 2
Giant foxtail; [7]
  Giant foxtail plant response rating: 2
Surinam grass; [1]
  B. signalgrass plant response rating: 0
Surinam grass; [2]
  B. signalgrass plant response rating (0 to 10 scale): 0
Surinam grass; [3]
  B. signalgrass plant response rating: 0
Surinam grass; [4]
  Plant response rating, B. signalgrass: 3
Surinam grass; [5]
  B. signalgrass plant response rating: 0
Surinam grass; Rate 125 g/ha, Postemergence, scale 0 (no effect) to 10 (complete control)
  B. signalgrass plant response rating: 0
Surinam grass; Rate 250 g/ha, Postemergence, scale 0 to 10, 0 is no effect, 10 is complete control
  Plant response rating, B. signalgrass: 0
Surinam grass; Rate 500 g/ha, Postemergence, scale 0 to 10, 0 no effect, 10 complete control
  B. signalgrass plant response rating: 3
velvetleaf; [1]
  Velvetleaf plant response rating: 0
velvetleaf; [3]
  Velvetleaf plant response rating: 0
velvetleaf; [4]
  Plant response rating, Velvetleaf: 3
velvetleaf; [5]
  Velvetleaf plant response rating: 0
velvetleaf; [6]
  Velvetleaf plant response rating: 0
velvetleaf; Rate 250 g/ha, Postemergence
  Plant response rating (0 to 10; 0 is no effect, 10 is complete control), Velvetleaf: 0
soybean; [1]
  Soybean plant response rating: 0
soybean; [2]
  Soybean plant response rating (0 to 10 scale): 0
soybean; [3]
  Soybean plant response rating: 0
soybean; [4]
  Plant response rating, Soybean: 0
soybean; [5]
  Soybean plant response rating: 0
soybean; [6]
  Soybean plant response rating: 0
soybean; Rate 250 g/ha, Postemergence
  Plant response rating (0 to 10; 0 is no effect, 10 is complete control), Soybean: 0
soybean; [7]
  Soybean plant response rating: 1
bedstraw; [1]
  Bedstraw plant response rating: 0
bedstraw; [2]
  Bedstraw plant response rating (0 to 10 scale): 0
bedstraw; [3]
  Bedstraw plant response rating: 0
bedstraw; [4]
  Plant response rating, Bedstraw: 10
bedstraw; [5]
  Bedstraw plant response rating: 0
bedstraw; [6]
  Bedstraw plant response rating: 0
bedstraw; Rate 250 g/ha, Postemergence
  Plant response rating (0 to 10; 0 is no effect, 10 is complete control), Bedstraw: 0
bedstraw; [7]
  Bedstraw plant response rating: 0
Smallflower flatsedge; [8]
  S. Flatsedge plant response rating: 0
Smallflower flatsedge; [9]
  S. Flatsedge plant response rating: 0
Smallflower flatsedge; [10]
  S. Flatsedge plant response rating: 0
Smallflower flatsedge; Rate 500 g/ha, Pre-emergence, flood test species, scale 0 to 10 (0 no effect, 10 complete control)
  S. Flatsedge plant response rating: 0
Purple nutsedge; [1]
  Nutsedge plant response rating: 0
Purple nutsedge; [3]
  Nutsedge plant response rating: 0
Purple nutsedge; [4]
  Plant response rating, Nutsedge: 0
Purple nutsedge; [5]
  Nutsedge plant response rating: 0
Purple nutsedge; [6]
  Nutsedge plant response rating: 0
Purple nutsedge; Rate 250 g/ha, Postemergence
  Plant response rating (0 to 10; 0 is no effect, 10 is complete control), Nutsedge: 0
Purple nutsedge; [7]
  Nutsedge plant response rating: 0
rape; [1]
  Rape plant response rating: 0
rape; [2]
  Rape plant response rating (0 to 10 scale): 0
rape; [3]
  Rape plant response rating: 2
rape; [4]
  Plant response rating, Rape: 7
rape; [5]
  Rape plant response rating: 0
rape; [6]
  Rape plant response rating: 0
rape; Rate 250 g/ha, Postemergence
  Plant response rating (0 to 10; 0 is no effect, 10 is complete control), Rape: 0
rape; [7]
  Rape plant response rating: 2
wheat; [1]
  Wheat plant response rating: 0
wheat; [3]
  Wheat plant response rating: 0
wheat; [4]
  Plant response rating, Wheat: 2
wheat; [5]
  Wheat plant response rating: 0
wheat; [6]
  Wheat plant response rating: 0
wheat; Rate 250 g/ha, Postemergence
  Plant response rating (0 to 10; 0 is no effect, 10 is complete control), Wheat: 0
Wild oat; [1]
  Wild oats plant response rating: 0
Wild oat; [3]
  Wild oats plant response rating: 3
Wild oat; [4]
  Plant response rating, Wild oats: 8
Wild oat; [5]
  Wild oats plant response rating: 0
Wild oat; [6]
  Wild oats plant response rating: 0
Wild oat; Rate 250 g/ha, Postemergence
  Plant response rating (0 to 10; 0 is no effect, 10 is complete control), Wild oats: 0
corn; [1]
  Corn plant response rating: 0
corn; [2]
  Corn plant response rating (0 to 10 scale): 0
corn; [3]
  Corn plant response rating: 0
corn; [4]
  Plant response rating, Corn: 0
corn; [5]
  Corn plant response rating: 0
corn; [6]
  Corn plant response rating: 0
corn; Rate 250 g/ha, Postemergence
  Plant response rating (0 to 10; 0 is no effect, 10 is complete control), Corn: 0
corn; [7]
  Corn plant response rating: 0
Duck salad; [8]
  Ducksalad plant response rating: 0
Duck salad; [9]
  Ducksalad plant response rating: 0
Duck salad; [10]
  Ducksalad plant response rating: 0
Duck salad; [11]
  Plant response rating, Ducksalad: 0
Sugar beet; [1]
  Sugarbeets plant response rating: 0
Sugar beet; [2]
  Sugarbeets plant response rating (0 to 10 scale): 0
Sugar beet; [3]
  Sugarbeets plant response rating: 2
Sugar beet; [4]
  Plant response rating, Sugarbeets: 3
Sugar beet; [5]
  Sugarbeets plant response rating: 0
Sugar beet; [6]
  Sugarbeets plant response rating: 0
Sugar beet; Rate 250 g/ha, Postemergence
  Plant response rating (0 to 10; 0 is no effect, 10 is complete control), Sugarbeets: 0
Sugar beet; [7]
  Sugarbeets plant response rating: 0
